The numbers were not newly measured in PMC3156379 (Bioorganic & medicinal chemistry letters, 2011), which cites them from elsewhere.

Data set [1] has as its system MAG inhibition of neurite outgrowth. The following applies: in vitro cell culture model.
The target of the next data set is T1, MAG (Homo sapiens, UniProt P20916).
T1 sequence (P20916 20-626): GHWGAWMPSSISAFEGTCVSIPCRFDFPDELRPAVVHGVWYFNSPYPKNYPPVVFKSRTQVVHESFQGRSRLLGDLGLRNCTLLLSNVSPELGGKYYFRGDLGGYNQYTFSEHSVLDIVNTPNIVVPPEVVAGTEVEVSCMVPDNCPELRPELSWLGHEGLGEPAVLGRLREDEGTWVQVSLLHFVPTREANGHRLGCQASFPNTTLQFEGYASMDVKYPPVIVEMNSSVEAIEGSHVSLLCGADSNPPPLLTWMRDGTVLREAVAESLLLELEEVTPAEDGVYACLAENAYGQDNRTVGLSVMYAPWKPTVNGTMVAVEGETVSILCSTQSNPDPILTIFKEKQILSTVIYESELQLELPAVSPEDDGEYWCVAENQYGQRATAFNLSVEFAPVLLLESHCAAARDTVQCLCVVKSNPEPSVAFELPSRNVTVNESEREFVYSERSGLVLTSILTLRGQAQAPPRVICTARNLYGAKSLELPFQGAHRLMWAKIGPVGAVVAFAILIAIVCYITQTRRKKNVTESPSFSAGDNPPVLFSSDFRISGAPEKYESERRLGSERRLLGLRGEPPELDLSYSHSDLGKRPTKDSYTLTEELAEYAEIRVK
The note with it: read-out: Kd for MAG; structures β-linked to synthetic aglycons.

As to `COC(=O)[C@@H](NC(C)=O)[C@@H](C)O[C@H]1O[C@H](CO)[C@H](O)[C@H](O[C@@H]2O[C@H](CO)[C@H](O)[C@H](O[C@]3(C(=O)[O-])C[C@H](O)[C@@H](NC(C)=O)[C@H]([C@H](O)[C@H](O)CO)O3)[C@H]2O)[C@H]1NC(C)=O.[Na+]` [Compound 11a, sialyl-T-antigen], the “reversing MAG inhibition of neurite outgrowth” value in data set [1] is reported as “exhibited activity for reversing MAG inhibition of neurite outgrowth”.
The term Kd denotes the concentration at which binding is half-saturated. With `CC(=O)N[C@H]1[C@H](OCC[Si](C)(C)C)O[C@H](CO[C@]2(C(=O)O)C[C@H](O)[C@@H](NC(C)=O)[C@H]([C@H](O)[C@H](O)CO)O2)[C@H](O)[C@@H]1O[C@@H]1O[C@H](CO)[C@H](O)[C@H](O[C@]2(C(=O)O)C[C@H](O)[C@@H](NC(C)=O)[C@H]([C@H](O)[C@H](O)CO)O2)[C@H]1O` [Compound 1], the dissociation constant Kd on MAG is 820 µM.
